Reference: ChEMBL document CHEMBL4480409, “SGC-GAK-1: A Chemical Probe for Cyclin G Associated Kinase (GAK)” (J Med Chem, 2019)
pIC50, pKd, pKi: −log10 of the molar value.

Tests used:
[1] = target: T1, Receptor-interacting serine/threonine-protein kinase 2 (Homo sapiens, UniProt O43353); assay: Binding affinity to biotinylated human RIPK2 (1 to 310 residues) expressed in Escherichia coli incubated for 1.5 hrs by fluorescent tracer dependent TR-FRET based competitive ligand binding displacement assay
T1 sequence (O43353 whole entry, the tested form may be a part): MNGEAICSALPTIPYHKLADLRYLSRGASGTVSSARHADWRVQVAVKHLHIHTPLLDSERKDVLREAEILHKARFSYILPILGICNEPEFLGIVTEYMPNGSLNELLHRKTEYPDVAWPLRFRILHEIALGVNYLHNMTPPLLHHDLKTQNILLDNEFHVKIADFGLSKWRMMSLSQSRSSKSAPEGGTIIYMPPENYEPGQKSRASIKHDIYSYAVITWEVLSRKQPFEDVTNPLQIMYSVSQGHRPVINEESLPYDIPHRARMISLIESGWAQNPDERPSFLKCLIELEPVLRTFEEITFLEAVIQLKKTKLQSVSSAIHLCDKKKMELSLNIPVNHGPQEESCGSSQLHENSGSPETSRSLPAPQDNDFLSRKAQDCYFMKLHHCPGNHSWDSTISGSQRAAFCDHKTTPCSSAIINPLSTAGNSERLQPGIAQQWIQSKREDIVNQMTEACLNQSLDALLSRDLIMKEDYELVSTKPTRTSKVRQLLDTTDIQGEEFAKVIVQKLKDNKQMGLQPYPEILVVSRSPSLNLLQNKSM

[2] = target: T2, Serine/threonine-protein kinase NLK (Homo sapiens, UniProt Q9UBE8); assay: Binding affinity to biotinylated full length human NLK expressed in Escherichia coli incubated for 1.5 hrs by fluorescent tracer dependent TR-FRET based competitive ligand binding displacement assay
T2 sequence (Q9UBE8 whole entry): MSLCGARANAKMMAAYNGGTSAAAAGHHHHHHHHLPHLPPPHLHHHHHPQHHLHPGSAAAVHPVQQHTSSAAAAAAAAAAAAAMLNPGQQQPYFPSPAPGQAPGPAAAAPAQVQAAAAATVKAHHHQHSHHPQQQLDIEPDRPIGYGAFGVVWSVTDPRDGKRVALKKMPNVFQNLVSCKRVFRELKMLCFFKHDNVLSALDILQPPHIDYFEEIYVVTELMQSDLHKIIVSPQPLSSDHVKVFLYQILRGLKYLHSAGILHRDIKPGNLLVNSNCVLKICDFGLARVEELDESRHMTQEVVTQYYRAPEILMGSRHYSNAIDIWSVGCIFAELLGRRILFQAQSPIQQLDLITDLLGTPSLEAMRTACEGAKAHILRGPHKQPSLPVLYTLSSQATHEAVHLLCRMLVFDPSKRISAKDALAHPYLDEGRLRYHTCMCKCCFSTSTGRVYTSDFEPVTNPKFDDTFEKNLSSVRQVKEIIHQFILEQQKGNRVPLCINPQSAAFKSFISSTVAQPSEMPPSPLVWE

[3] = target: Atypical kinase COQ8A, mitochondrial (Homo sapiens, UniProt Q8NI60); assay: Binding affinity to biotinylated full length human ADCK3 expressed in Escherichia coli incubated for 1.5 hrs by fluorescent tracer dependent TR-FRET based competitive ligand binding displacement assay
Chain of Atypical kinase COQ8A, mitochondrial (Q8NI60 whole entry, the tested form may be a part): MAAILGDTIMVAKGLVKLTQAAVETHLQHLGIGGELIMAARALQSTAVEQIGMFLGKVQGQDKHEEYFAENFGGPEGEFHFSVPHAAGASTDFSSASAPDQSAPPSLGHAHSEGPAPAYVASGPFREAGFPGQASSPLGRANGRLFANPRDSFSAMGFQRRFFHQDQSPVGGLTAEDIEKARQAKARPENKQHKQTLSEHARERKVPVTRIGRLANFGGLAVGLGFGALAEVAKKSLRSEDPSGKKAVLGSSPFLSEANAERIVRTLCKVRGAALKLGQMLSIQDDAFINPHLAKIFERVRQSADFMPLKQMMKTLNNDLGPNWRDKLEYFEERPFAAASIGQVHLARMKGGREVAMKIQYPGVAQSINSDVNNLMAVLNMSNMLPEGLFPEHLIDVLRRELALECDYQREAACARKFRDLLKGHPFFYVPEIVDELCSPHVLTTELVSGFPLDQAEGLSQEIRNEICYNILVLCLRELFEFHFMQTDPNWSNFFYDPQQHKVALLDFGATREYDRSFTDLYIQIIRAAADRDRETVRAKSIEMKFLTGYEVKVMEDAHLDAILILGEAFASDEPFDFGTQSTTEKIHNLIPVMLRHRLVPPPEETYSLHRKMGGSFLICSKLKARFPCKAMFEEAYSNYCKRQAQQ

[4] = target: T3, Cyclin-G-associated kinase (Homo sapiens, UniProt O14976); assay: Binding affinity to biotinylated human GAK (13 to 338 residues) expressed in Escherichia coli incubated for 1.5 hrs by fluorescent tracer dependent TR-FRET based competitive ligand binding displacement assay
T3 sequence (O14976 whole entry): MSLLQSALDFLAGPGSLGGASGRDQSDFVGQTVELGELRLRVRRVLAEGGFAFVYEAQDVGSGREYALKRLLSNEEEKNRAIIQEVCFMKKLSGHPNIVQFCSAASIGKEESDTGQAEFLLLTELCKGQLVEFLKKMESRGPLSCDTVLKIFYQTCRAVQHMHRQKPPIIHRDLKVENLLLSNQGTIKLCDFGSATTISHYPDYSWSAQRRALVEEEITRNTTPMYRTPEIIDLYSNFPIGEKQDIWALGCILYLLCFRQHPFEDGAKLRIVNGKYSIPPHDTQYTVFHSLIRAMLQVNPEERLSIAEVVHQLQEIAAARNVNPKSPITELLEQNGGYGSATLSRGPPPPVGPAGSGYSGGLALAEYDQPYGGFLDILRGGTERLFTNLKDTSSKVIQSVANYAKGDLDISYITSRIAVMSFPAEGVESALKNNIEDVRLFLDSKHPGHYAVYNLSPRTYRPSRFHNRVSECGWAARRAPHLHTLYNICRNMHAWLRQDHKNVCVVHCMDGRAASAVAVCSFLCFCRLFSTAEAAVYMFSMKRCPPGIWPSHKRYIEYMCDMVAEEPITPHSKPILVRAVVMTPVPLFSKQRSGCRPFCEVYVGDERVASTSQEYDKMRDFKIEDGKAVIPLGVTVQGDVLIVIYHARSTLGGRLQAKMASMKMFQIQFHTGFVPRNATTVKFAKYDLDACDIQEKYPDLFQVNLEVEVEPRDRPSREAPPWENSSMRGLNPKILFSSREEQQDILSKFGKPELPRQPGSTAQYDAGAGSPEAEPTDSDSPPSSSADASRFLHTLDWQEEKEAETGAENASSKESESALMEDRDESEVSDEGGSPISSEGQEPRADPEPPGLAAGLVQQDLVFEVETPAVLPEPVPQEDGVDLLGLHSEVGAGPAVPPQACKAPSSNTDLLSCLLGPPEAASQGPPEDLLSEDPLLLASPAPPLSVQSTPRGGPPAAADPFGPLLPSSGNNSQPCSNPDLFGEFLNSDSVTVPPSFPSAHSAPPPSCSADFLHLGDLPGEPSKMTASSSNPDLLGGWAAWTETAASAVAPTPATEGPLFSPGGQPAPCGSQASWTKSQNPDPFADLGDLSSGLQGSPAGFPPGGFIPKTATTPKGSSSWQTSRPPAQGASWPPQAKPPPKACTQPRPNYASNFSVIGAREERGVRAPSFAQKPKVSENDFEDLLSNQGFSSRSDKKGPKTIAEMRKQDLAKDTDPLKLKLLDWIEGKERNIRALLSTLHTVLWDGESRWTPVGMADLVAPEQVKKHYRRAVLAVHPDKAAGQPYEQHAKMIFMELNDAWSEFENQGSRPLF

[5] = target: T4, Cyclin-G-associated kinase (Homo sapiens) (UniProt O14976); assay: Binding affinity to biotinylated human GAK (13 to 338 residues) expressed in Escherichia coli at 1 uM incubated for 1.5 hrs by fluorescent tracer dependent TR-FRET based competitive ligand binding displacement assay
T4 sequence (whole entry): T3 sequence (O14976 whole entry)

[6] = target: T3, Cyclin-G-associated kinase
[7] = target: T3, Cyclin-G-associated kinase; assay: Displacement of fluorescent tracer from N-terminus of human GAK expressed in HEK293T cells after 2 hrs by NanoBRET target engagement assay; format: cell-based
[8] = target: T1, Receptor-interacting serine/threonine-protein kinase 2; assay: Displacement of fluorescent tracer from N-terminus of human RIPK2 expressed in HEK293T cells after 2 hrs by NanoBRET target engagement assay; format: cell-based
[9] = target: Serine/threonine-protein kinase 16 (Homo sapiens, UniProt O75716); assay: Binding affinity to C-terminal AVI-tagged STK16 (unknown origin) (13 to 305 residues) expressed in Escherichia coli after 1.5 hrs by TR-FRET assay
Chain of Serine/threonine-protein kinase 16 (O75716 whole entry, the tested form may be a part): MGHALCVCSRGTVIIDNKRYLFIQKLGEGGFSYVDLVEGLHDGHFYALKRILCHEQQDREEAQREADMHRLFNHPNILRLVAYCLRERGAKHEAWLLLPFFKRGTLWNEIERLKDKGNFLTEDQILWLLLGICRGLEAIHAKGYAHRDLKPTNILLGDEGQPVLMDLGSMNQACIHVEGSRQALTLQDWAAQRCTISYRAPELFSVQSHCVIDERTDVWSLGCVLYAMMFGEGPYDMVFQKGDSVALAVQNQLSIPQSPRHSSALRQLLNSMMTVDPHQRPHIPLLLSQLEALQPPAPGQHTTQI

[10] = target: BMP-2-inducible protein kinase (Homo sapiens, UniProt Q9NSY1); assay: Binding affinity to C-terminal AVI-tagged BMP2K (unknown origin) (38 to 345 residues) expressed in Escherichia coli after 1.5 hrs by TR-FRET assay
Chain of BMP-2-inducible protein kinase (Q9NSY1 whole entry, the tested form may be a part): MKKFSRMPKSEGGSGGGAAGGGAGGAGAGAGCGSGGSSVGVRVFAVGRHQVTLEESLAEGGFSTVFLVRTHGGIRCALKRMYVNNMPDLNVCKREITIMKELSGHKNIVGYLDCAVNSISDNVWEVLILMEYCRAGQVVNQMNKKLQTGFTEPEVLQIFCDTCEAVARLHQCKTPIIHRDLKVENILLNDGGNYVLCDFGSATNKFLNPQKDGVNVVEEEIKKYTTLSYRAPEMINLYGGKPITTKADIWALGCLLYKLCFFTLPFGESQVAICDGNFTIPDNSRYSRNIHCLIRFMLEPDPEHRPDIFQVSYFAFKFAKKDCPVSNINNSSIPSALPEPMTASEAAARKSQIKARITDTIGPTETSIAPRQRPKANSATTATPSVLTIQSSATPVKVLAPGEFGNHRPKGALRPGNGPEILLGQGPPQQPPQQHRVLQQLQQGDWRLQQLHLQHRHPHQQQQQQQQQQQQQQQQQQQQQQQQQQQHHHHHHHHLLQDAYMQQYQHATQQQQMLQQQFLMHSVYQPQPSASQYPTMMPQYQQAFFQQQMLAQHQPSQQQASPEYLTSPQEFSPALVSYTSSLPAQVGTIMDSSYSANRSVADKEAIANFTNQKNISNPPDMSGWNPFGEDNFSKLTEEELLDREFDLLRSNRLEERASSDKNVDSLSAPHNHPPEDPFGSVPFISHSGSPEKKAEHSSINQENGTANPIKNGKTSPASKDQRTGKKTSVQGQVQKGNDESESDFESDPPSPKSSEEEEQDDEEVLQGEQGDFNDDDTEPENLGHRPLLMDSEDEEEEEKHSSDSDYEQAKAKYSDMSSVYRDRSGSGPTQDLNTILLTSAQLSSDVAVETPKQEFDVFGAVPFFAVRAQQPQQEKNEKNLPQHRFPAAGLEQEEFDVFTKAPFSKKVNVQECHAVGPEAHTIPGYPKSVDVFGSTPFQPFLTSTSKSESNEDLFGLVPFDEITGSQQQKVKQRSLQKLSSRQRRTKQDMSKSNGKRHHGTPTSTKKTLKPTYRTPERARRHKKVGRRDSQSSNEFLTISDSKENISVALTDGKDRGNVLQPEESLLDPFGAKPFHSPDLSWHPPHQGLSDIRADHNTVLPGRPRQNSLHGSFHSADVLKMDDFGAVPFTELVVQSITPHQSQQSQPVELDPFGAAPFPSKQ

[11] = target: T4, Cyclin-G-associated kinase (Homo sapiens)
Description: Binding affinity to GAK (unknown origin) assessed as change in melting temperature by DSF assay

[12] = target: AP2-associated protein kinase 1 (Homo sapiens, UniProt Q2M2I8); assay: Binding affinity to C-terminal AVI-tagged AAK1 (unknown origin) (31 to 396 residues) expressed in Escherichia coli after 1.5 hrs by TR-FRET assay
Chain of AP2-associated protein kinase 1 (Q2M2I8 whole entry, the tested form may be a part): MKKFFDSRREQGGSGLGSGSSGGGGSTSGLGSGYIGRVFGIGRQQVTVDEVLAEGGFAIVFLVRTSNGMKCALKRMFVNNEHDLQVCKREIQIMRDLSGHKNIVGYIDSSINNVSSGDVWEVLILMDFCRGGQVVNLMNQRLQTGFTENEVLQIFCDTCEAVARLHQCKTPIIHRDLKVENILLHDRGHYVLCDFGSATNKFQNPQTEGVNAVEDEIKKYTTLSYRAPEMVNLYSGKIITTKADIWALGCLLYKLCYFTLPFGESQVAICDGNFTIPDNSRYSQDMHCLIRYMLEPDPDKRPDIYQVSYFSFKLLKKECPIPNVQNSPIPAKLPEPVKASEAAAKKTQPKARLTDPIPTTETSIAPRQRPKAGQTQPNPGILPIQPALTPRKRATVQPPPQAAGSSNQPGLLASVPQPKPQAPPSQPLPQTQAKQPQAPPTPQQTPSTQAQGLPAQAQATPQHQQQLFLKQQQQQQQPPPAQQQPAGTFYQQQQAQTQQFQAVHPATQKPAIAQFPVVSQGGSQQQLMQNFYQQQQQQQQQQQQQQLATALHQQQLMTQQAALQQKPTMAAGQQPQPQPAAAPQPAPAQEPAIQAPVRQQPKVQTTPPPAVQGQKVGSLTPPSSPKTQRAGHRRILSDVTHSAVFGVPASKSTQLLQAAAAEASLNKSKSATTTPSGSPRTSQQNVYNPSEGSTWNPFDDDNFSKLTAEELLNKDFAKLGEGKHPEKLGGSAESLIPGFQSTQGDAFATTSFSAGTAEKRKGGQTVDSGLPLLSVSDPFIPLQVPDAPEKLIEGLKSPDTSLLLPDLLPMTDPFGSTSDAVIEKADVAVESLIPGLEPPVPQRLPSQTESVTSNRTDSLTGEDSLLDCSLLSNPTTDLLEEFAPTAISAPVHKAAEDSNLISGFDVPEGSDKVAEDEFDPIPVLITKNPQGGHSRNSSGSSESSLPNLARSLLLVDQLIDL

[13] = test system: LNCaP; assay: Cytotoxicity against human LNCAP cells after 72 hrs by MTS assay; format: functional, cell-based
[14] = test system: CWR22R; assay: Cytotoxicity against human 22Rv1 cells after 72 hrs by MTS assay; format: functional, cell-based; conditions: 22Rv1, 72 h
[15] = target: T3, Cyclin-G-associated kinase; assay: Binding affinity to GAK (unknown origin)
[16] = target: T5, Interleukin-1 receptor-associated kinase 3 (Homo sapiens, UniProt Q9Y616); assay: Binding affinity to human IRAK3 (147 to 596 residues) expressed in bacterial expression system by KINOMEscan assay
T5 sequence (Q9Y616 whole entry): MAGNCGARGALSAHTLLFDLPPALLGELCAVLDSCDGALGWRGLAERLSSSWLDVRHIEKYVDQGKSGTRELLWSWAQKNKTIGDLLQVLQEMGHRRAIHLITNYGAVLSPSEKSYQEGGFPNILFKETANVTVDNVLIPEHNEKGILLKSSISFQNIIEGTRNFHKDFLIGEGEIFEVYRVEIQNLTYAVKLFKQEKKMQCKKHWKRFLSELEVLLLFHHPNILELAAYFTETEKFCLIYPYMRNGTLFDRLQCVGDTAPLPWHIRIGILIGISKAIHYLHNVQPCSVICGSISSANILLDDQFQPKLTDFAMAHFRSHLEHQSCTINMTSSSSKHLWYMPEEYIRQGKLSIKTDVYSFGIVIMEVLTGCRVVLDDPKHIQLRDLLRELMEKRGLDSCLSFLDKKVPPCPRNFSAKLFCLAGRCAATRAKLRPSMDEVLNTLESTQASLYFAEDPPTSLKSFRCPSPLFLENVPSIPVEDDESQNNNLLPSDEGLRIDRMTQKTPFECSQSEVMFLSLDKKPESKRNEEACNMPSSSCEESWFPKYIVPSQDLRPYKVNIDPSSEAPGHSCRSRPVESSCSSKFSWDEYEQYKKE

Row | SMILES | pKd [1] | pKd [2] | pKd [3] | pKd [4] | pKi [6] | also measured
1 | COc1cc(Nc2ccnc3ccc(C(C)(C)C)cc23)cc(OC)c1OC | 6.17 | 6.46 | 6.13 | 7.60 |  | 
2 | COc1cc(Nc2ccnc3ccccc23)cc(OC)c1OC | 5.54 | 5.21 | 5.39 | 7.23 |  | 
3 | COc1cc(Nc2ccnc3cc(C#N)ccc23)cc(OC)c1OC | 7.02 | 7.55 | 7.18 | 8.01 |  | 
4 | COc1cc(Nc2ccnc3ccc(Cl)cc23)cc(OC)c1OC | 7.07 | 6.19 | 6.77 | 8.17 |  | 
5 | COc1cc(Nc2ccnc3ccc(C(F)(F)F)cc23)cc(OC)c1OC |  | 6.10 |  |  |  | Activity [5]: > 50%
6 | Cc1[nH]nc(Nc2ncnc3cc(OCCO)c(S(=O)(=O)C(C)(C)C)cc23)c1C |  |  |  |  | 7.31 | 
7 | Clc1cc2cc(c1)-c1cnn3ccc(nc13)NCCOCCO2 |  |  |  |  | 8.42 | pIC50 [7]: 7.22; pIC50 [8]: 7.96
8 | COc1cc(Nc2ccnc3ccc(C#N)cc23)cc(OC)c1OC | 7.06 | 7.54 | 6.77 | 8.41 |  | 
9 | COc1cc2nccc(Nc3cc(OC)c(OC)c(OC)c3)c2cc1OC | 7.38 | 6.39 | 6.60 | 8.54 |  | 
10 | COc1cc(Nc2cc(C)nc3ccc(C(F)(F)F)cc23)cc(OC)c1OC |  |  |  |  | 4.72 | pKi [9]: < 4.00; pKi [10]: < 4.00; ΔTm [11]: -0.52 °C; pKi [12]: < 4.00
11 | COc1cc(Nc2ccnc3ccc(Br)cc23)cc(OC)c1OC | 6.96 | 6.28 | 6.72 |  |  | pIC50 [13]: 6.19; pKi [10]: < 4.00; ΔTm [11]: 7.7 °C; pIC50 [8]: 6.44; pIC50 [14]: 6.77
12 | COc1cc(Nc2ccnc3ccc(I)cc23)cc(OC)c1OC | 7.16 | 6.18 | 6.72 | 8.10 |  | 
13 | COc1cc(-c2cnc3c(N4CCOCC4)snc3c2)cc(OC)c1OC |  |  |  |  |  | pKd [15]: 8.05
14 | CC(C)(C)S(=O)(=O)c1ccc2nccc(Nc3n[nH]c4ccc(F)cc34)c2c1 |  |  |  |  | 6.66 | 
15 | COc1ccc2nccc(Nc3cc(OC)c(OC)c(OC)c3)c2c1 | 6.77 | 5.59 | 5.70 | 7.68 |  | 
16 | COc1ccc2c(Nc3cc(OC)c(OC)c(OC)c3)ccnc2c1 | 6.70 | 6.15 | 5.92 | 7.77 |  | 
17 | COc1cc(N(C)c2ccnc3ccc(C(F)(F)F)cc23)cc(OC)c1OC |  |  |  |  | 5.60 | pIC50 [13]: < 4.00; pKi [9]: 4.82; pKi [10]: 4.02; ΔTm [11]: -0.3 °C; pKd [16]: 6.13; pKi [12]: 4.11; pIC50 [14]: < 4.00
18 | CC(C)(C)S(=O)(=O)c1cc2c(Nc3ccc4scnc4c3)ncnc2cc1OCCO |  |  |  |  | 5.09 | pIC50 [7]: < 5.00; pIC50 [8]: 8.70
